Values quoted from earlier work, collected in patent US10301318B2, “Neuroactive compounds and methods of using the same” (THE GENERAL HOSPITAL CORPORATION, priority 2014, dated 2019).

Test system: mice
Conditions: literature

O=C(CCCN1CCC(O)(c2ccc(Cl)cc2)CC1)c1ccc(F)cc1 [haloperidol]
reversal of PCP-induced hyperlocomotion: can be reversed
